# Experiments:
# giant foxtail [1] = test: Test A pre-/postemergence herbicide test; type: in vivo, Setaria faberi
# How it was run: (§1)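 Greenhouse injury scoring (0–100, complete control = 100) at approximately ten days follows simultaneous pre- and postemergence application. Soil received a directed spray after seeding; seedlings of 2–10 cm at the one- to two-leaf stage were sprayed to runoff.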
# large crabgrass [2] = test: Test A pre-/postemergence herbicide test; type: in vivo, Digitaria sanguinalis
# How it was run: as §1
# redroot pigweed = test: Test A pre-/postemergence herbicide test; type: in vivo, Amaranthus retroflexus
# How it was run: as §1
# pigweed = test: Test B pre-/postemergence herbicide test; type: in vivo, Amaranthus retroflexus
# How it was run: (§2)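 Greenhouse pot assay with simultaneous preemergence (treated seed) and postemergence (2–18 cm seedlings) applications of surfactant-containing, non-phytotoxic solvent formulations. Response scored visually 13–15 days later on a 0–100 scale, 100 meaning complete control.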
# barnyardgrass [3] = test: Test A pre-/postemergence herbicide test; type: in vivo, Echinochloa crus-galli
# How it was run: as §1
# barnyardgrass [4] = test: Test B flooded paddy test; type: in vivo, Echinochloa crus-galli; conditions: 1000 g ai/ha, scale 0 to 100 (0 no effect, 100 complete control)
# How it was run: (§3)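 Greenhouse test; postemergence application to plants at 1–4 leaves (2–18 cm); paddy species at 2 leaves; evaluated visually vs controls at 13–15 days; scale 0–100 (100 = complete control).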
# barnyardgrass [5] = test: Test B pre-/postemergence herbicide test; type: in vivo, Echinochloa crus-galli
# How it was run: as §2
# large crabgrass [6] = test: Test B pre-/postemergence herbicide test; type: in vivo, Digitaria sanguinalis
# How it was run: as §2
# blackgrass = test: Test B postemergence herbicide test; type: in vivo, Alopecurus myosuroides
# How it was run: as §3
# cocklebur = test: Test B pre-/postemergence herbicide test; type: in vivo, Xanthium strumarium
# How it was run: as §2
# morningglory [7] = test: Test A pre-/postemergence herbicide test; type: in vivo, Ipomoea spp.
# How it was run: as §1
# ducksalad = test: Test B flooded paddy test; type: in vivo, Heteranthera limosa; conditions: 1000 g ai/ha, scale 0 to 100 (0 no effect, 100 complete control)
# How it was run: as §3
# [8] = test system: small flower umbrella sedge; test: Test B flooded paddy test; type: in vivo, Cyperus difformis; conditions: 1000 g ai/ha, scale 0 to 100 (0 no effect, 100 complete control)
# How it was run: as §3
# giant foxtail [9] = test: Test B pre-/postemergence herbicide test; type: in vivo, Setaria faberi
# How it was run: as §2
# wheat = test: Test B postemergence herbicide test; type: in vivo, Triticum aestivum; design: key to Wheat plant response rating: 0 = no effect, 100 = complete control
# How it was run: (§4)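 Each value is a visual 0–100 response rating taken against controls 13 to 15 days after treatment in the greenhouse. Plants received formulated chemical postemergence at the 1- to 4-leaf stage or, in flooded paddy, at the 2-leaf stage.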
# rice = test: Test B flooded paddy test; type: in vivo, Oryza sativa; conditions: 1000 g ai/ha, scale 0 to 100 (0 no effect, 100 complete control)
# How it was run: as §3
# velvetleaf [10] = test: Test A pre-/postemergence herbicide test; type: in vivo, Abutilon theophrasti
# How it was run: as §1
# wild oat = test: Test B postemergence herbicide test; type: in vivo, Avena fatua
# How it was run: as §4
# velvetleaf [11] = test: Test B pre-/postemergence herbicide test; type: in vivo, Abutilon theophrasti
# How it was run: as §2
# lambsquarters = test: Test B pre-/postemergence herbicide test; type: in vivo, Chenopodium album
# How it was run: as §2
# corn = test: Test B pre-/postemergence herbicide test; type: in vivo, Zea mays
# How it was run: as §2
# morningglory [12] = test: Test B pre-/postemergence herbicide test; type: in vivo, Ipomoea coccinea
# How it was run: as §2
# Surinam grass = test: Test B pre-/postemergence herbicide test; type: in vivo, Urochloa decumbens
# How it was run: as §2
# [13] = Postemergence, 500 g ai/ha, 0 to 100 scale, 0 no effect, 100 complete control
# [14] = Postemergence, 2000 g ai/ha, 0 to 100 scale, 0 no effect, 100 complete control
# [15] = Preemergence, 2000 g ai/ha, visual rating, 0 to 100 scale (0 no effect, 100 complete control)
# [16] = preemergence, 500 g ai/ha, visual injury, 0 to 100 scale (0 no effect, 100 complete control)
# [17] = 125 g ai/ha; 0 is no effect, 100 is complete control; preemergence
# [18] = 125 g ai/ha; visual rating, scale 0 (no effect) to 100 (complete control); postemergence
# [19] = 500 g ai/ha; visual rating, 0 = no effect, 100 = complete control; preemergence
# [20] = postemergence, 500 g ai/ha; scale 0 to 100, 0 is no effect, 100 is complete control
# [21] = 125 g ai/ha; 0 = no effect, 100 = complete control; preemergence
# [22] = 500 g ai/ha; visual rating 0-100, 0 no effect, 100 complete control; preemergence
# [23] = postemergence, 125 g ai/ha; visual rating, scale 0 (no effect) to 100 (complete control)
# [24] = postemergence, 500 g ai/ha; visual rating, scale 0 (no effect) to 100 (complete control)
smiles,measurement,setting,value
CCc1nn(C2CCCC2)nc1C(=O)Nc1cccc(C(=O)N(C)C)c1 [Compound 355],"Foxtail, Giant plant response rating",giant foxtail [1]; [13],10
same,"Plant response rating, Foxtail, Giant",giant foxtail [1]; [14],45
same,"Foxtail, Giant plant response rating",giant foxtail [1]; [15],60
same,"Foxtail, Giant plant response rating",giant foxtail [1]; [16],20
same,"Crabgrass, Large plant response rating",large crabgrass [2]; [13],10
same,"Plant response rating, Crabgrass, Large",large crabgrass [2]; [14],30
same,"Crabgrass, Large plant response rating",large crabgrass [2]; [15],50
same,"Crabgrass, Large plant response rating",large crabgrass [2]; [16],20
same,Pigweed plant response rating,redroot pigweed; [13],40
same,"Plant response rating, Pigweed",redroot pigweed; [14],90
same,Pigweed plant response rating,redroot pigweed; [15],50
same,Pigweed plant response rating,redroot pigweed; [16],10
same,"Plant response rating (0 to 100 scale), Pigweed",pigweed; [17],50
same,Pigweed plant response rating,pigweed; [18],20
same,"Plant response rating, Pigweed",pigweed; [19],100
same,Pigweed plant response rating,pigweed; [20],50
same,Barnyardgrass plant response rating,barnyardgrass [3]; [13],40
same,"Plant response rating, Barnyardgrass",barnyardgrass [3]; [14],75
same,Barnyardgrass plant response rating,barnyardgrass [3]; [15],80
same,Barnyardgrass plant response rating,barnyardgrass [3]; [16],50
same,Barnyardgrass plant response rating,barnyardgrass [4],50
same,"Plant response rating (0 to 100 scale), Barnyardgrass",barnyardgrass [5]; [17],70
same,Barnyardgrass plant response rating,barnyardgrass [5]; [18],0
same,"Plant response rating, Barnyardgrass",barnyardgrass [5]; [19],90
same,Barnyardgrass plant response rating,barnyardgrass [5]; [20],10
same,"Plant response rating (0 to 100 scale), Crabgrass, Large",large crabgrass [6]; [17],70
same,"Crabgrass, Large plant response rating",large crabgrass [6]; [18],10
same,"Plant response rating, Crabgrass, Large",large crabgrass [6]; [19],100
same,"Crabgrass, Large plant response rating",large crabgrass [6]; [20],10
same,Blackgrass plant response rating,blackgrass; [18],0
same,Blackgrass plant response rating,blackgrass; [20],20
same,"Plant response rating (0 to 100 scale), Cocklebur",cocklebur; [17],0
same,Cocklebur plant response rating,cocklebur; [18],0
same,"Plant response rating, Cocklebur",cocklebur; [19],10
same,Cocklebur plant response rating,cocklebur; [20],10
same,Morningglory plant response rating,morningglory [7]; [13],15
same,"Plant response rating, Morningglory",morningglory [7]; [14],75
same,Morningglory plant response rating,morningglory [7]; [15],40
same,Morningglory plant response rating,morningglory [7]; [16],10
same,Ducksalad plant response rating,ducksalad,70
same,"Sedge, Umbrella plant response rating",[8],70
same,"Plant response rating (0 to 100 scale), Foxtail, Giant",giant foxtail [9]; [17],10
same,"Foxtail, Giant plant response rating",giant foxtail [9]; [18],20
same,"Plant response rating, Foxtail, Giant",giant foxtail [9]; [19],90
same,"Foxtail, Giant plant response rating",giant foxtail [9]; [20],30
same,Wheat plant response rating,wheat; [18],0
same,Wheat plant response rating,wheat; [20],20
same,Rice plant response rating,rice,50
same,Velvetleaf plant response rating,velvetleaf [10]; [13],15
same,"Plant response rating, Velvetleaf",velvetleaf [10]; [14],65
same,Velvetleaf plant response rating,velvetleaf [10]; [15],55
same,Velvetleaf plant response rating,velvetleaf [10]; [16],25
same,"Oat, Wild plant response rating",wild oat; [18],0
same,"Oat, Wild plant response rating",wild oat; [20],30
same,"Plant response rating (0 to 100 scale), Velvetleaf",velvetleaf [11]; [17],0
same,Velvetleaf plant response rating,velvetleaf [11]; [18],30
same,Velvetleaf plant response rating,velvetleaf [11]; [20],50
same,"Plant response rating (0 to 100 scale), Lambsquarters",lambsquarters; [17],80
same,Lambsquarters plant response rating,lambsquarters; [18],10
same,"Plant response rating, Lambsquarters",lambsquarters; [19],100
same,Lambsquarters plant response rating,lambsquarters; [20],70
same,"Plant response rating (0 to 100 scale), Corn",corn; [17],20
same,Corn plant response rating,corn; [18],0
same,"Plant response rating, Corn",corn; [19],60
same,Corn plant response rating,corn; [20],0
same,"Plant response rating (0 to 100 scale), Morningglory",morningglory [12]; [17],10
same,Morningglory plant response rating,morningglory [12]; [18],10
same,"Plant response rating, Morningglory",morningglory [12]; [19],10
same,Morningglory plant response rating,morningglory [12]; [20],40
same,"Plant response rating (0 to 100 scale), Surinam Grass",Surinam grass; [17],40
same,Surinam Grass plant response rating,Surinam grass; [18],10
same,"Plant response rating, Surinam Grass",Surinam grass; [19],80
same,Surinam Grass plant response rating,Surinam grass; [20],20
CC(=O)c1cccc(NC(=O)c2cn(C(C)C)nc2C)c1 [Compound 179],"Foxtail, Giant plant response rating",giant foxtail [1]; [13],0
same,"Plant response rating, Foxtail, Giant",giant foxtail [1]; [14],10
same,"Foxtail, Giant plant response rating",giant foxtail [1]; [15],10
same,"Foxtail, Giant plant response rating",giant foxtail [1]; [16],0
same,"Crabgrass, Large plant response rating",large crabgrass [2]; [13],10
same,"Plant response rating, Crabgrass, Large",large crabgrass [2]; [14],10
same,"Crabgrass, Large plant response rating",large crabgrass [2]; [15],50
same,"Crabgrass, Large plant response rating",large crabgrass [2]; [16],0
same,Pigweed plant response rating,redroot pigweed; [13],0
same,"Plant response rating, Pigweed",redroot pigweed; [14],10
same,Pigweed plant response rating,redroot pigweed; [15],35
same,Pigweed plant response rating,redroot pigweed; [16],0
same,Pigweed plant response rating (0 to 100 scale),pigweed; [21],0
same,"Plant response rating, Pigweed",pigweed; [22],0
same,Pigweed plant response rating,pigweed; [23],0
same,Pigweed plant response rating,pigweed; [24],0
same,Barnyardgrass plant response rating,barnyardgrass [3]; [13],5
same,"Plant response rating, Barnyardgrass",barnyardgrass [3]; [14],10
same,Barnyardgrass plant response rating,barnyardgrass [3]; [15],40
same,Barnyardgrass plant response rating,barnyardgrass [3]; [16],0
same,Barnyardgrass plant response rating,"barnyardgrass [4]; visual rating, 13 to 15 days",0
same,Barnyardgrass plant response rating (0 to 100 scale),barnyardgrass [5]; [21],0
same,"Plant response rating, Barnyardgrass",barnyardgrass [5]; [22],0
same,Barnyardgrass plant response rating,barnyardgrass [5]; [23],0
same,Barnyardgrass plant response rating,barnyardgrass [5]; [24],0
same,"Crabgrass, Large plant response rating (0 to 100 scale)",large crabgrass [6]; [21],0
same,"Plant response rating, Crabgrass, Large",large crabgrass [6]; [22],0
same,"Crabgrass, Large plant response rating",large crabgrass [6]; [23],0
same,"Crabgrass, Large plant response rating",large crabgrass [6]; [24],0
same,Blackgrass plant response rating,blackgrass; [23],0
same,Blackgrass plant response rating,blackgrass; [24],0
same,Cocklebur plant response rating (0 to 100 scale),cocklebur; [21],0
same,"Plant response rating, Cocklebur",cocklebur; [22],0
same,Cocklebur plant response rating,cocklebur; [23],0
same,Cocklebur plant response rating,cocklebur; [24],0
same,Morningglory plant response rating,morningglory [7]; [13],10
same,"Plant response rating, Morningglory",morningglory [7]; [14],30
same,Morningglory plant response rating,morningglory [7]; [15],5
same,Morningglory plant response rating,morningglory [7]; [16],0
same,Ducksalad plant response rating,"ducksalad; visual rating, 13 to 15 days",0
same,"Sedge, Umbrella plant response rating","[8]; visual rating, 13 to 15 days",0
same,"Foxtail, Giant plant response rating (0 to 100 scale)",giant foxtail [9]; [21],0
same,"Plant response rating, Foxtail, Giant",giant foxtail [9]; [22],0
same,"Foxtail, Giant plant response rating",giant foxtail [9]; [23],0
same,"Foxtail, Giant plant response rating",giant foxtail [9]; [24],0
same,Wheat plant response rating,wheat; [23],0
same,Wheat plant response rating,wheat; [24],0
same,Rice plant response rating,"rice; visual rating, 13 to 15 days",0
same,Velvetleaf plant response rating,velvetleaf [10]; [13],0
same,"Plant response rating, Velvetleaf",velvetleaf [10]; [14],5
same,Velvetleaf plant response rating,velvetleaf [10]; [15],0
same,Velvetleaf plant response rating,velvetleaf [10]; [16],0
same,"Oat, Wild plant response rating",wild oat; [23],0
same,"Oat, Wild plant response rating",wild oat; [24],0
same,Velvetleaf plant response rating (0 to 100 scale),velvetleaf [11]; [21],0
same,"Plant response rating, Velvetleaf",velvetleaf [11]; [22],0
same,Velvetleaf plant response rating,velvetleaf [11]; [23],0
same,Velvetleaf plant response rating,velvetleaf [11]; [24],0
same,Lambsquarters plant response rating (0 to 100 scale),lambsquarters; [21],0
same,"Plant response rating, Lambsquarters",lambsquarters; [22],0
same,Lambsquarters plant response rating,lambsquarters; [23],0
same,Lambsquarters plant response rating,lambsquarters; [24],0
same,Corn plant response rating (0 to 100 scale),corn; [21],0
same,"Plant response rating, Corn",corn; [22],0
same,Corn plant response rating,corn; [23],0
same,Corn plant response rating,corn; [24],0
same,Morningglory plant response rating (0 to 100 scale),morningglory [12]; [21],0
same,"Plant response rating, Morningglory",morningglory [12]; [22],0
same,Morningglory plant response rating,morningglory [12]; [23],0
same,Morningglory plant response rating,morningglory [12]; [24],0
same,Surinam Grass plant response rating (0 to 100 scale),Surinam grass; [21],0
same,"Plant response rating, Surinam Grass",Surinam grass; [22],0
same,Surinam Grass plant response rating,Surinam grass; [23],0
same,Surinam Grass plant response rating,Surinam grass; [24],0
